Test results from patent EP1736150A2 (Pfizer, Inc., priority 1997, dated 1999).
Several values for one entry are separate records, joined by “and”; a condition that tells them apart may be missing. Identical values can stand only once.

Assays:
[1] = Hygroscopicity (moisture microbalance); type: physicochemical; conditions: 10% to 90% humidity, 25°C
Method: A temperature of 25°C is maintained during all hygroscopicity measurements.

[2] = Accelerated chemical stability (reverse phase HPLC); conditions: same accelerated stability conditions
[3] = Plasma pharmacokinetics, bolus versus 15 hr divided dosing (Example 1); type: in vivo; conditions: human
[4] = system: healthy male human subjects; assay: Side effects by visual analogue scales and emesis (Example 1); type: in vivo
[5] = Plasma pharmacokinetics, bolus versus 7 hr divided dosing (Example 2); type: in vivo; conditions: human, fasted, mean; for AUC(0-t): po, 200 mg
[6] = system: healthy male human subjects; assay: Side effects by visual analogue scales and emesis (Example 2); type: in vivo
[7] = Pharmacokinetics of sertraline delivered to various portions of the gastrointestinal tract (Example 3); type: in vivo; conditions: for AUC(0-t): human, plasma; for AUC(0-t) / AUC as percent of the AUC observed after dosing with oral tablets: 200 mg
[8] = system: healthy male human subjects; assay: Side effect score versus plasma concentration, PK/PD (Example 6); type: in vivo
[9] = Mechanical properties of compacts of the pure drug substance; type: physicochemical
Method: The measurements of mechanical properties can be routinely accomplished using square compacts of the pure drug substance, in this case sertraline acetate and sertraline L-lactate. The measurements are made in triplicate and the compacts are prepared by uniaxial compression and triaxial decompression.
Samples for the testing of mechanical properties are prepared according to standard procedures. To generate reliable data, such samples must be free of mechanical flaws, such as microcracks. Therefore, a specialized tablet press, prepared as described in U.S. Patent No. 4,880,373, is utilized. […] The apparent density of the compact is determined by measuring the […]. […] The true density of the powder is determined by helium pycnometry. Ordinarily, to achieve the desired solid fraction, trial compactions of carefully weighed powder samples must be performed and the solid fraction of the resultant compact is measured. […]
Dynamic indentation hardness, H0, of the compacts is measured with a pendulum impact apparatus , prepared as described in U.S. Patent No. 4,885,933. […] The time required for the pendulum to pass between two photocells of given distance apart is measured and the pendulum rebound height, hr is automatically calculated. […]

[10] = 200 mg single dose (Group A), two 100 mg immediate release tablets (ZOLOFT), oral, fasted, mean
[11] = 200 mg bolus dose group, individual subjects
[12] = GROUP A (Bolus Dose) 200 mg, summed over 24 hr post-dose
[13] = GROUP B (16 Divided Doses) 12.5 mg hourly, summed over 24 hr post-dose
[14] = 200 mg single dose, two 100 mg immediate release tablets (ZOLOFT), oral, four subjects with emesis not included
[15] = GROUP B (8 Divided Doses) 25 mg hourly
[16] = GROUP A, Ileocecal Infusion, 200 mg as 2 mg/ml solution
[17] = GROUP A, Stomach Infusion, 200 mg as 2 mg/ml solution
[18] = GROUP B, Colonic Infusion (transverse colon), 200 mg as 2 mg/ml solution
[19] = GROUP B, Duodenal Infusion, 200 mg as 2 mg/ml solution

CN[C@H]1CC[C@@H](c2ccc(Cl)c(Cl)c2)c2ccccc21.N[C@@H](CC(=O)O)C(=O)O [sertraline L-aspartate]
hygroscopicity [1]: not hygroscopic
purity of samples after stability testing [2]: greater than 99%

CN[C@H]1CC[C@@H](c2ccc(Cl)c(Cl)c2)c2ccccc21 [sertraline, (1S-cis)-4-(3,4-dichlorophenyl)-1,2,3,4-tetrahydro-N-methyl-1-naphthalenamine]
AUC(0-t) [3, 10]: 1650 ng·h/mL
CMAX [3, 10]: 74 ng/mL
TMAX [3, 10]: 6 h
AUC(0-t) ([3]; po): 1230 ng·h/mL
subjects with emesis ([4]; 200 mg bolus dose group (15 subjects)): Three
time of emesis [4, 11]: 4.25 h and 11.2 h and 7.6 h
emetic episodes ([4]; 15 hr divided dose regimen (16 x 12.5 mg)): no emetic episodes
Mean cumulative score: Abdominal Cramping [4, 12]: 3.1
Mean cumulative score: Diarrhea [4, 12]: 3.9
Mean cumulative score: Nausea [4, 12]: 17.5
Mean cumulative score: Regurgitation [4, 12]: 4.0
Mean cumulative score: Tremor [4, 12]: 7.9
Mean cumulative score: Urgency to Defecate [4, 12]: 3.1
Mean cumulative score: Abdominal Pain ([4]; GROUP A (Bolus Dose) 200 mg, visual analogue scores summed over 24 hr post-dose): 2.7
Mean cumulative score: Abdominal Cramping [4, 13]: 0.1
Mean cumulative score: Abdominal Pain [4, 13]: 0.1
Mean cumulative score: Diarrhea [4, 13]: 0.2
Mean cumulative score: Nausea [4, 13]: 2.6
Mean cumulative score: Regurgitation [4, 13]: 0.3
Mean cumulative score: Tremor [4, 13]: 1.7
CMAX [5, 14]: 75 ng/mL
TMAX [5, 14]: 5.4 h
AUC(0-t) ([5]; 25 mg per hr for 7 hr, eight 25 mg doses as solution): 1440 ng·h/mL
AUC(0-t) ([5]; 200 mg single dose, two 100 mg immediate release tablets (ZOLOFT), four subjects with emesis not included): 1740 ng·h/mL
time of emesis [6, 11]: 2.6 hr and 2.8 hr (2×) and 3.8 hr
emetic events ([6]; 7 hr divided dose group, 8 x 25 mg (n=16)): 1
time of emesis ([6]; 7 hr divided dose regimen, one subject): 12.6 h
Mean cumulative score: Dizziness ([6]; GROUP A (Bolus Dose) 200 mg): 10.4
Mean cumulative score: Regurgitation ([6]; GROUP A (Bolus Dose) 200 mg): 3.9
Mean cumulative score: Tremor ([6]; GROUP A (Bolus Dose) 200 mg): 8.9
Mean cumulative score: Dizziness [6, 15]: 4.8
Mean cumulative score: Regurgitation [6, 15]: 0.1
Mean cumulative score: Tremor [6, 15]: 2.7
CMAX [7, 16]: 27.3 ng/mL
TMAX [7, 16]: 5.0 h
TMAX ([7]; GROUP A, Oral Tablet, 200 mg as two 100 mg tablets): 7.0 h
CMAX ([7]; GROUP A, Oral Tablet, 200 mg as two 100 mg tablets, 6 volunteers): 39.9 ng/mL
CMAX [7, 17]: 35.6 ng/mL
TMAX [7, 17]: 7.0 h
CMAX [7, 18]: 10.9 ng/mL
TMAX [7, 18]: 4.4 h
CMAX [7, 19]: 48.8 ng/mL
TMAX [7, 19]: 3.7 h
TMAX ([7]; GROUP B, Oral Tablet, 200 mg as two 100 mg tablets): 6.7 h
CMAX ([7]; GROUP B, Oral Tablet, 200 mg as two 100 mg tablets, 6 volunteers): 44.7 ng/mL
AUC(0-t) [7, 16]: 727 ng·h/mL
AUC(0-t) [7, 17]: 923 ng·h/mL
AUC(0-t) [7, 18]: 179 ng·h/mL
AUC(0-t) [7, 19]: 1270 ng·h/mL
AUC(0-t) ([7]; po, GROUP A, Oral Tablet, 200 mg as two 100 mg tablets): 1170 ng·h/mL
AUC(0-t) ([7]; po, GROUP B, Oral Tablet, 200 mg as two 100 mg tablets): 1150 ng·h/mL
AUC as percent of the AUC observed after dosing with oral tablets ([7]; infusion into the duodenal region): 110%
AUC as percent of the AUC observed after dosing with oral tablets ([7]; infusion into the ileocecal region of the small intestine): 62%
AUC as percent of the AUC observed after dosing with oral tablets ([7]; infusion into the stomach): 79%
AUC as percent of the AUC observed after dosing with oral tablets ([7]; infusion into the transverse colon): 16%
time at which the maximum diarrhea score was reached ([8]; Study 1, 200 mg bolus dose, post-dose): 3 h
time of emesis ([8]; Study II, 200 mg dose group, individual subjects): 2.6 hr and 2.8 hr (2×) and 3.8 hr

sertraline acetate
hygroscopicity [1]: not hygroscopic
ductility (assessment in words) [9]: high ductility
elastic modulus (assessment in words) [9]: relatively low elastic modulus
purity of samples after stability testing [2]: greater than 99%
